Results on one compound are retold here after patent US5409946A, “Isoxazole, isothiazole and pyrazole compounds that enhance cognitive function” (Abbott Laboratories, priority 1993, dated 1995).

The subject of data set [1] is basal forebrain neurotransmission / cortical cerebral blood flow. Nature of the data set: Cerebral blood flow (laser-doppler flowmetry) and mean arterial pressure with basal forebrain stimulation. Type of data set: in vivo, male Sprague-Dawley rats. As for the experimental part: Methods for surgical preparation of rats for electrical stimulation of brain and measurement of CBF have been previously described (Nakai et al., Am. J. Physiol., 1982, 243: 226) and are summarized below.
Studies are conducted on male Sprague-Dawley rats that are maintained in a thermally-controlled (26°-27° C.), light-cycled (7.00 hour on-19.00 hour off) environment, fed standard rat chow and given water ad libitum. Anesthesia is induced with halothane (3.5%; balance O2) delivered through a nose mask and maintained at 2% during the initial surgery. Thin-wall vinyl catheters (o.d.=0.03 inch) are placed in each femoral artery and vein, and the trachea is cannulated.
Animals are subsequently co-anesthetized with urethane (1.5 g/kg, s.c.) and placed in a stereotaxic frame with the head positioned so that the floor of the IVth ventricle was horizontal (incisor bar position: -11 mm. ). After connecting the tracheal cannula to a small-animal respirator, the animals are temporarily paralyzed with d-tubocurarine (0.6 mg/kg/h, i.m.), and ventilated (80 cpm) with 100% O2. Arterial pressure (AP) and heart rate (HR) are continuously monitored through one of the arterial catheters connected to a Statham P23Db transducer that is coupled to a chart recorder. The level of anesthesia during surgery or subsequent experimental testing is assessed by the AP response to tail pinch, with increasing levels of arousal giving rise to irregular AP readings. Booster doses of urethane (250 mg/kg, s.c.) are given as needed.
Bilateral craniotomies (approximately 4 mm×11 mm) are performed overlying the frontoparietal cortices taking care to leave the dura intact. Halothane is delivered at a reduced rate of 1% during cranial surgery and discontinued afterward. A small volume (about 0.2 ml) of arterial blood is sampled after completion of all surgery for measurement of PO2, PCO2 and pH by a blood gas analyzer. Arterial blood gases are maintained so that PO2 was greater than 100 mm Hg, PCO2 =33-38 mmHg, and pH=7.35-7.45. Maintaining these values is accomplished by adjusting the stroke volume of the ventilator. Once appropriate physiological parameters are obtained (approximately 30 min), the experimental protocol is initiated.
The basal forebrain (BF) is stimulated with cathodal current delivered through a stainless steel concentric bipolar electrode ([…]) made by Rhodes Medical Instruments (Model SNEX-100). Electrical pulses are generated by a square wave stimulator (Grass, Model S-88) and constant current is passed through a photoelectric stimulus-isolation unit (Grass, Model PSIU6). The stimulus current is measured on an oscilloscope by continuously displaying the voltage drop across a 10-ohm resistor.
The procedure for eliciting an increased cortical CBF response requires the stereotaxic placement of the stimulating electrode into the BF. For positioning, the electrode is inclined posteriorly to 18 degrees, and the stereotaxic coordinates used were 5.0 mm posterior to, and 2.6 mm lateral to bregma (stereotaxic zero reference point). […] These parameters have been shown previously to elicit maximal increases in cortical CBF (Arneric, Excerpta Medica International Congress Series, 869:381, 1989). The region of the BF that selectively affects cortical CBF is restricted, with electrode movements of 0.5 mm dorsal or ventral to this site eliciting potent vasodepressor responses in addition to the increases in CBF. […] When CBF increases of approximately 100% or greater are repeatedly obtained in the absence of significant changes in AP (<10 mm Hg) or HR (<10 beats/min.), and when the perfusion rate is stable in the absence of BF stimulation, the experimental testing is started.
The principles and technical aspects of laser-doppler flowmetry (LDF) are presented in detail in Bonner et al., Appl. Opt., 1981, 20:2097 and Stern et al., Am. J. Physiol., 1977, 232:H441. […]

Data set [2] concerns anxiety induced by (-)-nicotine withdrawal. Nature of the data set: Elevated plus-maze 48 hours after withdrawal of 14-day chronic (-)-nicotine. Type of data set: in vivo, rats. The conditions noted are these: for TIME OPEN ARMS: chronic (-)-nicotine, mean ± SEM. The source says: The mouse elevated plus-maze is a conflict test that probes anxiolytic activity of test compounds (Lister, Psychopharmacology, 1987, 92:180). It is based on the fact that exposure of mice to an elevated open arm leads to an avoidance response considerably stronger than that evoked by exposure to an enclosed arm. Compounds may be tested for their ability to modify the avoidance response of the animal to the open arm maze. […] The effect of such potential anti-anxiety drugs may be tested further in a withdrawal challenge test.
Elevated Plus-Maze: The procedure originally described by Pellow et al., for rats was used, with minor modifications (Pellow et al., J. Neurosci. Meth., 14: 149, 1985). The apparatus consisted of two open arms (50×10 cm) and two enclosed arms (50×10×40 cm) extending from a central platform (10×10 cm). It was mounted on a base raising 50 cm above the floor. Light levels on the open and enclosed arms were similar. The animals were placed in the center of the maze and the time spent in the open arms and the total distance traveled by the rat were recorded automatically by a camera mounted above the apparatus, then analyzed by computer (Videomex™ software, Columbus Instruments, Columbus, Ohio). All animals used were naive to the apparatus. Animals were injected i.p. with saline or the different drug doses, and submitted to the test 30 minutes later. The test lasted 5 minutes, and the apparatus was thoroughly cleaned after removal of the animal.
The pumps were removed on day 14 and the animals were tested in the plus-maze 48 hours later, at the time when a state of withdrawal-induced anxiety was present in the rats. On the test day i.p. doses of either saline or the compound of Example 2 were administered to the animals 30 minutes before the test. Data (Table 13) represent the mean ±SEM time spent in the open arms of the plus-maze of 8-16 rats.

Entries after “also recorded” stand apart in the source; their conditions may differ.

As to `Cc1cc([C@@H]2CCCN2C)on1.O=C(O)C(=O)O` [Example 2, 3-Methyl-5-(1-methyl-2(S)-pyrrolidinyl)-isoxazole oxalate salt], the “BF-elicited CBF % change from pre-drug control” value in data set [1] (0.004 μmol/kg i.v.) is recorded as “+68%”; in data set [1] (0.040 μmol/kg i.v., *p < 0.05) it was “+60%”; in data set [1] (0.400 μmol/kg i.v., *p < 0.05), “+68%”. The “MAP % change from pre-drug control” value in data set [1] (0.004 μmol/kg i.v.) is listed as “+5%”; in data set [1] (0.040 μmol/kg i.v.), -5%; in data set [1] (0.400 μmol/kg i.v.), -13%. The “resting CBF % change from pre-drug control” value in data set [1] (0.004 μmol/kg i.v.) is “+5%”; in data set [1] (0.040 μmol/kg i.v.), -2%; in data set [1] (0.400 μmol/kg i.v.), -6%. Also, the “effect on resting CBF and the BF-elicited CBF response” value in data set [1] (i.v., low concentrations, n=3) was “effective in enhancing resting CBF and the BF-elicited CBF response”. Moreover, in data set [1] (i.v., oxalate salt), the “effects on MAP / blood pressure” value is reported as “No remarkable effects on MAP; also recorded: no overt effects on blood pressure”. Also, the “effect on time spent in the open arms” value in data set [2] (48 h after withdrawal of chronic (-)-nicotine) was “significant increase in the time spent in the open arms”. Moreover, the “TIME OPEN ARMS” value amounted to 36.8 ± 12.5 s in data set [2] (challenge 0.19 μmol/kg i.p.); 73.6 ± 7.7 s in data set [2] (challenge 0.62 μmol/kg i.p., **p < 0.05 against chronic nicotine, saline-challenged); 43.1 ± 10.1 s in data set [2] (challenge 1.9 μmol/kg i.p.).
